Key:
[1] = UPLC-MS/MS statin and metabolite concentrations in vitreous of vitrectomy patients on oral statins; assay type: in vivo, human
Procedure: The study was conducted according to the tenets of the Declaration of Helsinki, and was approved by the Institutional Review Board and Ethical committee of Helsinki University Central Hospital. Twenty patients were enrolled; fifteen with per oral statin treatment and five controls. Signed informed consent was obtained from each participant prior to the vitreous sampling. Confidentiality of the patient records was maintained when the clinical data were entered into a computer-based standardized data entry for analysis. Sixteen patients were being operated due to PDR; of these, five patients had also Tractional Retinal Detachment (TRD); two patients were operated due to RRD, one due to age-related epiretinal fibrosis (pucker), and one due to a macular hole (Supplementary Table S2). […] All vitrectomies were performed by the recruiting vitreoretinal surgeon (SL). […] The samples were collected by manual aspiration into a syringe via the vitrectomy with the cutting function activated. Sample aliquots were transferred into sterile 1.5 mL microcentrifuge tubes (Freemont, CA, USA) and immediately frozen and stored at − 70 °C until laboratory analysis. […] All reference compounds and internal standards were purchased from Toronto Research Chemicals (Toronto, Canada). Samples (100 µl) were divided into two aliquots and kept at − 80 °C prior to analysis. […] Homogenizer blocks were pre-cooled by placing them at − 20 °C. […] Supernatants (120 µl) were pipetted into analytical vials and the concentrations of the statins were measured with Ultra-high Pressure Liquid Chromatography—tandem Mass Spectrometry (UPLC-MS/MS) technique. The same pre-treatment protocol was used to prepare calibration curves and quality control samples but homogenized and filtered porcine vitreous were used as a matrix instead of human vitreous. A minimum of six calibration curve concentrations was used for quantitation of the compounds. Two parallel calibration curve sets included all eleven analytes and four deuterated internal standards. Three quality control samples in three parallel sets were used to validate the method. The linear range varied from approximately 0.004 to 10 ng/mL depending on the analyte. Limit of quantitation was set to the smallest calibration curve point of each drug. Each sample was analysed twice and the average of these values was designated as the concentration of the sample. […] For rosuvastatin, two metabolites were analysed: rosuvastatin lactone and N-desmethyl rosuvastatin lactone. Rosuvastatin D6 was used as an internal standard. The parent drug, its metabolites and internal standard were analysed from the same sample in each case. Liquid chromatography separation was carried out using a Waters Acquity UPLC instrument (Waters, MA, USA) coupled with Waters HSS T3 C18 (2.1 × 100 mm, 1.8 µm) column at 40 °C. The mobile phase consisted of 0.1% formic acid in ultrapure water (A) and 100% of LC–MS grade acetonitrile (B). […] The flow rate was set to 0.3 mL/min and injection volume 1.5 µl. After every three samples, a solvent blank was run to control for any carry over. Mass spectrometry measurements were carried out using a Waters Xevo Triple Quadruple mass spectrometer (TQ-S) equipped with an ESI source. […] The source parameters were as follows: Capillary voltage 2.8 kV, source temperature 150 °C and desolvation temperature 500 °C. Nitrogen (Aga, Helsinki, Finland) was used as a desolvation gas (800 l/h), a cone gas (150 l/h) and a nebulizer gas (7 bar). Argon (Aga, Helsinki, Finland) was used as a collision gas (0.15 mL/min). The Multiple Reaction Monitoring (MRM) mode was used for quantification. Precursor and fragment ions, as well as other optimized parameters are listed in Supplementary Table S3.

ARPE-19 cells = experiment: LDH release assay (cell membrane integrity); assay type: cell-based, human; details: with and without LPS; Supplementary Fig. S3
Procedure: Cell viability was assessed by determining the amount of LDH enzyme from culture media using a commercial kit (Promega Corporation, USA) according to the manufacturer’s protocol. This assay provides information about the integrity of the plasma membranes of the cells (high LDH levels meaning cell damage). In addition, the cell viability was examined with MTT assay, as described previously. In viable cells, the mitochondrial succinate dehydrogenase enzyme can metabolize the MTT dye into formazan that absorbs light at the 550 nm wavelength.

[2] = Calculated average steady-state plasma (Eq. 1) and expected vitreal concentrations (Eq. 3); design: species or system human; details: for Calc. Cv: expected vitreal, Eq. 3; for Css,av: plasma, Eq. 1
Procedure: The concentrations of statins and their metabolites in the vitreous were analysed (see above) and expressed as ng/mL concentrations. These concentrations were compared to published statin concentrations in plasma. […] Maximum concentrations in plasma and the area under the concentration vs time curve values were collected. The expected average statin concentrations in plasma during multiple dose treatment were calculated for the doses that the patients received in our study (Eq. 1):1 Css,av=AUCsingledose/τ where τ is the time interval between doses. The drug concentrations in plasma (C, Cmax, Css, av) include both unbound (Cu) and protein-bound drug. The values for protein binding were obtained from the summary of drug product characteristics for each statin. The free fraction of statin in plasma was calculated based on Eq. (2):2 fu=CuC
The expected drug concentrations in the patients’ vitreous samples were calculated according to Eq. (3)3 Cv=fu×Css,av
Equation (3) assumes that the vitreal drug concentrations equilibrate with the unbound drug concentrations in plasma, because only free drug is expected to cross the blood-ocular barriers.

IL-6 = experiment: ELISA of LPS-induced IL-6 release from ARPE-19 cells; details: then LPS
IL-8 = experiment: ELISA of LPS-induced IL-8 release from ARPE-19 cells; details: 24 h prior to LPS
MCP-1 = experiment: ELISA of LPS-induced MCP-1 release from ARPE-19 cells; details: 24 h prior to LPS
PVR rabbit model [3] = experiment: Preclinical PVR rabbit model with intravitreal simvastatin (Kawahara et al.); assay type: in vivo; details: Eq. 5; intravitreal dose 0.63 µg, dosing interval 48 h, rabbit CLivt 0.982 mL/h; study data of [16]
PVR rabbit model [4] = tested on: PVR rabbit model; design: method as in PMID 18599521; details: four intravitreal injections of 15 µM at intervals of two days; end point 28 days; ref [16]; cited from earlier work
[5] = free fraction of drug in plasma; ref summary of product characteristics document; cited from earlier work
[6] = patient 397, PDR, oral rosuvastatin 20 mg
[7] = patient 412, PDR, oral rosuvastatin 20 mg
[8] = patient 355, PDR, oral atorvastatin 10 mg
[9] = patient 368, PDR, oral atorvastatin 40 mg
[10] = patient 429, RRD, oral atorvastatin 20 mg
[11] = patient 430, PDR, oral atorvastatin 20 mg
[12] = patient 352, PDR, TDR, oral atorvastatin 20 mg
[13] = patient 347, PDR, TDR, oral simvastatin 40 mg
[14] = patient 370, PDR, oral simvastatin 40 mg
[15] = patient A101, PDR, TDR, oral simvastatin 40 mg
[16] = oral 40 mg/d, patients' vitreous

CC(C)c1nc(NS(C)(=O)=O)nc(-c2ccc(F)cc2)c1/C=C/[C@@H](O)C[C@@H](O)CC(=O)O [N-desmethyl Rsv, n-desmethyl rosuvastatin]
Concentration in vitreous sample ([1]; patient 371, PDR, dose 0* (control without reported statin treatment)): 0.019 ng/mL | Concentration in vitreous sample [1, 6]: 0.013 ng/mL | Concentration in vitreous sample [1, 7]: 0.026 ng/mL

CC(C)c1c(C(=O)Nc2ccccc2)c(-c2ccccc2)c(-c2ccc(F)cc2)n1CC[C@@H](O)C[C@@H](O)CC(=O)O [Atorvastatin]
Tolerance by ARPE-19 cells (LDH and MTT) (ARPE-19 cells): well tolerated | Calc. Cv ([2]; 10 mg/d, India study [22]): 0.046 ng/mL | Calc. Cv ([2]; 10 mg/d, Jordan study [21]): 0.024 ng/mL | Calc. Cv ([2]; 10 mg/d, Turkey study [23]): 0.098 ng/mL | Calc. Cv ([2]; 20 mg/d, China study [25]): 0.037 ng/mL | Calc. Cv ([2]; 20 mg/d, UK study [26]): 0.153 ng/mL | Calc. Cv ([2]; 20 mg/d, USA study [24]): 0.049 ng/mL | Calc. Cv ([2]; 40 mg/d, Finland study [28]): 0.045 ng/mL | Calc. Cv ([2]; 40 mg/d, Finland study [29]): 0.051 ng/mL | Calc. Cv ([2]; 40 mg/d, USA study [27]): 0.082 ng/mL | Css,av ([2]; 10 mg/d, Jordan study [21]): 0.49 ng/mL | Css,av ([2]; 20 mg/d, China study [25]): 1.85 ng/mL | Css,av ([2]; 20 mg/d, UK study [26]): 7.63 ng/mL | Css,av ([2]; 40 mg/d, Finland study [28]): 2.26 ng/mL | Css,av ([2]; 40 mg/d, Finland study [29]): 2.56 ng/mL | Css,av ([2]; 40 mg/d, USA study [27]): 4.11 ng/mL | times lower secretion of IL-6 compared to the solvent control (IL-6; 5 µM pre-treatment for 24 h): 1.5 times | times lower secretion of IL-6 compared to the solvent control (IL-6; 10 µM pre-treatment for 24 h): 1.6 times | LPS-induced release of IL-8 (IL-8; 5 µM): reduced | LPS-induced release of IL-8 (IL-8; 10 µM): reduced | LPS-induced release of MCP-1 (MCP-1; 5 µM): reduced | LPS-induced release of MCP-1 (MCP-1; 10 µM): reduced

CC(C)c1c(C(=O)Nc2ccc(O)cc2)c(-c2ccccc2)c(-c2ccc(F)cc2)n1CCC1CC(O)CC(=O)O1 (stereo not shown) [4-OH Atv lactone, 4-OH atorvastatin lactone]
Concentration in vitreous sample [1, 8]: 0.012 ng/mL | Concentration in vitreous sample [1, 9]: 0.039 ng/mL | Concentration in vitreous sample [1, 10]: 0.008 ng/mL | Concentration in vitreous sample [1, 11]: 0.017 ng/mL

CC(C)c1c(C(=O)Nc2ccccc2O)c(-c2ccccc2)c(-c2ccc(F)cc2)n1CCC(O)CC(O)CC(=O)O (stereo not shown) [2-OH Atv, 2-OH atorvastatin]
Concentration in vitreous sample [1, 12]: 0.047 ng/mL | Concentration in vitreous sample [1, 8]: 0.071 ng/mL | Concentration in vitreous sample [1, 9]: 0.176 ng/mL | Concentration in vitreous sample [1, 11]: 0.099 ng/mL

CC(C)c1nc(N(C)S(C)(=O)=O)nc(-c2ccc(F)cc2)c1/C=C/[C@@H]1C[C@@H](O)CC(=O)O1 [Rsv lactone, rosuvastatin lactone]
Concentration in vitreous sample [1, 6]: 0.011 ng/mL | Concentration in vitreous sample [1, 7]: 0.025 ng/mL

CC(C)c1c(C(=O)Nc2ccc(O)cc2)c(-c2ccccc2)c(-c2ccc(F)cc2)n1CC[C@@H](O)C[C@@H](O)CC(=O)O [4-OH Atv, 4-OH atorvastatin]
Concentration in vitreous sample [1, 12]: 0.022 ng/mL | Concentration in vitreous sample [1, 8]: 0.057 ng/mL | Concentration in vitreous sample [1, 9]: 0.209 ng/mL | Concentration in vitreous sample [1, 10]: 0.022 ng/mL | Concentration in vitreous sample [1, 11]: 0.12 ng/mL

CC(C)c1c(C(=O)Nc2ccccc2)c(-c2ccccc2)c(-c2ccc(F)cc2)n1CC[C@@H]1C[C@@H](O)CC(=O)O1 [Atv lactone, atorvastatin lactone]
Concentration in vitreous sample [1, 12]: 0.012 ng/mL | Concentration in vitreous sample [1, 8]: 0.035 ng/mL | Concentration in vitreous sample [1, 9]: 0.089 ng/mL | Concentration in vitreous sample [1, 10]: 0.016 ng/mL | Concentration in vitreous sample [1, 11]: 0.062 ng/mL

CCC(C)(C)C(=O)O[C@H]1C[C@@H](C)C=C2C=C[C@H](C)[C@H](CC[C@@H](O)C[C@@H](O)CC(=O)O)[C@H]21 [Sim acid, simvastatin acid]
Concentration in vitreous sample [1, 13]: 0.039 ng/mL | Concentration in vitreous sample [1, 14]: 0.019 ng/mL | Concentration in vitreous sample [1, 15]: 0.006 ng/mL

CC(C)c1c(C(=O)Nc2ccccc2O)c(-c2ccccc2)c(-c2ccc(F)cc2)n1CCC1CC(O)CC(=O)O1 (stereo not shown) [2-OH Atv lactone, 2-OH atorvastatin lactone]
Concentration in vitreous sample [1, 12]: 0.023 ng/mL | Concentration in vitreous sample [1, 8]: 0.029 ng/mL | Concentration in vitreous sample [1, 9]: 0.063 ng/mL | Concentration in vitreous sample [1, 10]: 0.023 ng/mL | Concentration in vitreous sample [1, 11]: 0.032 ng/mL

CCC(C)(C)C(=O)O[C@H]1C[C@@H](C)C=C2C=C[C@H](C)[C@H](CC[C@@H]3C[C@@H](O)CC(=O)O3)[C@H]21 [Simvastatin]
Measured Cv Average [1, 16]: 0.048 ng/mL | Measured Cv Range (lower) [1, 16]: 0.027 ng/mL | Measured Cv Range (upper) [1, 16]: 0.073 ng/mL | Concentration in vitreous sample [1, 13]: 0.073 ng/mL | Concentration in vitreous sample [1, 14]: 0.044 ng/mL | Concentration in vitreous sample ([1]; patient A98, PDR, TDR, oral simvastatin 10 mg): […] | Concentration in vitreous sample [1, 15]: 0.027 ng/mL | Vitreal drug concentrations ([1]; two patients, one daily 10 mg, the other daily 20 mg): […] | therapeutic Css, average in PVR rabbit model (PVR rabbit model [3]): 13.3 ng/mL | effect in preclinical PVR rabbit model (PVR rabbit model [4]): Clear beneficial effects | fu [5]: […]

Reference: PMC7806714, “Statins for the prevention of proliferative vitreoretinopathy: cellular responses in cultured cells and clinical statin concentrations in the vitreous” (Scientific Reports, 2021)
